Measured values from US20240334933A1, “USE OF COMPOSITIONS WITH ETHOFUMESATE AND BIXLOZONE IN WHEAT CROPS” (BAYER AKTIENGESELLSCHAFT, priority 2021, published 2024).
Where two headings read alike, the source gives them in different places.

How the values were obtained:
[1] = tested on: barley and wheat; settings: greenhouse studies; cited from earlier work
[2] = tested on: annual bluegrass (Poa annua L.); settings: pre-emergence or early post-emergence at 0.8 to 4.5 kg/ha; cited from earlier work
[3] = tested on: corn; settings: applied 3 weeks before planting at rates of 2.2 to 9.0 kg/ha; cited from earlier work
[4] = tested on: volunteer wheat (Triticum aestivum L.); settings: cited from earlier work
[5] = tested on: wheat crop plants; experiment: Own experiments: safening effect of mefenpyr-diethyl used with flufenacet; type: in vivo; settings: used with flufenacet (WSSA group 15 herbicide)

SMILES	susceptibility of barley and wheat to soil residues relative to corn [1]	control of annual bluegrass [2]	corn yields [3]	control of volunteer wheat ([4]; 1.7 kg/ha or more, wheat in the one- to three-leaf stage)	control of volunteer wheat ([4]; applied pre-emergence soon after planting or at the end of November to wheat in the four-leaf to four-tiller stage)	safening effect in wheat crop plants [5]
CCOC1Oc2ccc(OS(C)(=O)=O)cc2C1(C)C (stereo not drawn) [Ethofumesate, 2-ethoxy-2,3-dihydro-3,3-dimethylbenzofuran-5-yl methanesulfonate]	about 10 times	eliminated annual bluegrass	reduced in proportion to the rate	eliminated the wheat	Wheat was not eliminated	
CCOC(=O)C1=NN(c2ccc(Cl)cc2Cl)C(C)(C(=O)OCC)C1 (stereo not drawn) [Mefenpyr-diethyl, ethyl 1-(2,4-dichlorophenyl)-5-(ethoxycarbonyl)-5-methyl-2-pyrazoline-3-carboxylate]						does not have a safening effect
